Assay [1] has as its target 1-phosphatidylinositol 4,5-bisphosphate phosphodiesterase gamma-1 (Homo sapiens, UniProt P19174). As to the kind of experiment: Counterscreen for inhibitors of phospholipase C isozymes (PLC-B3): Fluorescence-based biochemical high throughput dose response assay to identify inhibitors of phospholipase C isozymes (PLC-gamma1).
Assay [2] has as its target 1-phosphatidylinositol 4,5-bisphosphate phosphodiesterase beta-3 (Homo sapiens, UniProt Q01970). As to the kind of experiment: Fluorescence-based biochemical high throughput dose response assay to identify inhibitors of phospholipase C isozymes (PLC-B3).
The target of another assay is Genome polyprotein (dengue virus type 2, UniProt P29990). As to the kind of experiment: flavivirus cap methylation enzyme inhibition – biochemical, confirmation dose response, primary screen (AID 588689). It is filed as functional.
Genome polyprotein, sequence (P29990 2492-3391 limits assumed): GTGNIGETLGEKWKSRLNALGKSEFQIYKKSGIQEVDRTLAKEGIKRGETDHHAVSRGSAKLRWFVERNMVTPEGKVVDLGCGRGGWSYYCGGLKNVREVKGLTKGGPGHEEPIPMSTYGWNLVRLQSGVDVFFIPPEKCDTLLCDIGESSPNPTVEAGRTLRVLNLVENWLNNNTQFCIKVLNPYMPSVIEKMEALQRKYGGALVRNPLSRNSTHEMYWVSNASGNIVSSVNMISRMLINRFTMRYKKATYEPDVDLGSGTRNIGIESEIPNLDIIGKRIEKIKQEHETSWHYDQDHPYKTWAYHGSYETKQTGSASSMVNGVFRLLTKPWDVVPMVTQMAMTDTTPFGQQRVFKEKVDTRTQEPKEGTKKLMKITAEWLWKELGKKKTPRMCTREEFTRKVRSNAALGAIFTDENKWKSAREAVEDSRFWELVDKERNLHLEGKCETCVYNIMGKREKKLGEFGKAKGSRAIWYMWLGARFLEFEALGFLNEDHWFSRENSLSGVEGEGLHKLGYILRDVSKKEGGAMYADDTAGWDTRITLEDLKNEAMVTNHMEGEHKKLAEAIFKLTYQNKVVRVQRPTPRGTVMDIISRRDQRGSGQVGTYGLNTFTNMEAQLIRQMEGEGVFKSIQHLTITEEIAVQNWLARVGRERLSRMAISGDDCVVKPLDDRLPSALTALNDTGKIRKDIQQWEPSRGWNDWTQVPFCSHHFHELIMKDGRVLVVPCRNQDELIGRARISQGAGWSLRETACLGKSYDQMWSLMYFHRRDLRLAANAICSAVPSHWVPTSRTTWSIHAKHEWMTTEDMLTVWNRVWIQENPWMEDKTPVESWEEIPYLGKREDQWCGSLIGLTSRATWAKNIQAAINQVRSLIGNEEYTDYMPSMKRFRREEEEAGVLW
Assay [3] addresses T1, Apoptotic protease-activating factor 1 (Homo sapiens, UniProt O14727).
T1 sequence (O14727 whole entry): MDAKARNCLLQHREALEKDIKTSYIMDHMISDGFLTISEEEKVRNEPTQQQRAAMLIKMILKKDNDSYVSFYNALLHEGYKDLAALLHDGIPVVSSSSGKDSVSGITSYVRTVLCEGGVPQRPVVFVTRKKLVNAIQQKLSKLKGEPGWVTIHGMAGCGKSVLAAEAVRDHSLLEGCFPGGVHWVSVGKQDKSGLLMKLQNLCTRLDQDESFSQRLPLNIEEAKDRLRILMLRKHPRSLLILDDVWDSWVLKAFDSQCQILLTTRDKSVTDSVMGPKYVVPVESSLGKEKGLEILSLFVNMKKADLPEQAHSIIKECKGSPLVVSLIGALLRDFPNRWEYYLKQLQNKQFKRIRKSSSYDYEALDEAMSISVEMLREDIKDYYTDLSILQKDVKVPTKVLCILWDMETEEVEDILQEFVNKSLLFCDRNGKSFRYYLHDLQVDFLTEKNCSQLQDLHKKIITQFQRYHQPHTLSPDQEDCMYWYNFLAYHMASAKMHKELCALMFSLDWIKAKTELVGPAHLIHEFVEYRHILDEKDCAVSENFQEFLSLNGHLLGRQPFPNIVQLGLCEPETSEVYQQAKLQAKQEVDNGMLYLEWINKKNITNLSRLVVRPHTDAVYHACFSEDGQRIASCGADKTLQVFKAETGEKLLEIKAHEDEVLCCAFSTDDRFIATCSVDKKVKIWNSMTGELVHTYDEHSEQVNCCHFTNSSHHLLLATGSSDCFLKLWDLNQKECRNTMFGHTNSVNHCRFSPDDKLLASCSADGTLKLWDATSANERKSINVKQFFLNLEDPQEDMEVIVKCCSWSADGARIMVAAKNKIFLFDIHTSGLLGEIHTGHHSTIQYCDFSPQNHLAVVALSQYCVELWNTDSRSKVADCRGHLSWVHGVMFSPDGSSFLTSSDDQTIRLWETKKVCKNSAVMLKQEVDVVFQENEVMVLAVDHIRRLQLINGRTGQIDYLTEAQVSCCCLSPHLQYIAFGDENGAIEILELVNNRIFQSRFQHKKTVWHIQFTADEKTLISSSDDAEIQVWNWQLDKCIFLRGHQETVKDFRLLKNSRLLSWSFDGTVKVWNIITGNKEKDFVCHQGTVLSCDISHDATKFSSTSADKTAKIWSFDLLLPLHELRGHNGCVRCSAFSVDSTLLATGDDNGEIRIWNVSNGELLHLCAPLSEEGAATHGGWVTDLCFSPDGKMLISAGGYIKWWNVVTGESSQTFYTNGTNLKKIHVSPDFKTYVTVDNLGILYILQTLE
The assay is classed as functional.

Assay [4] concerns the target Tyrosyl-DNA phosphodiesterase 2 (Homo sapiens, UniProt O95551). In words: potency against TDP2 phosphodiesterase activity – biochemical, epi absorbance, IC50, dose response (AID 743297).
In assay [5] the target is Potassium channel subfamily K member 3 (Homo sapiens, UniProt O14649). As to the kind of experiment: inhibition of human KCNK3 channel flux – CHO cells, FluxOR thallium flux, SAR follow-up (AID 652212). The assay is classed as functional.
Potassium channel subfamily K member 3 (Homo sapiens, UniProt O14649), sequence (O14649 whole entry): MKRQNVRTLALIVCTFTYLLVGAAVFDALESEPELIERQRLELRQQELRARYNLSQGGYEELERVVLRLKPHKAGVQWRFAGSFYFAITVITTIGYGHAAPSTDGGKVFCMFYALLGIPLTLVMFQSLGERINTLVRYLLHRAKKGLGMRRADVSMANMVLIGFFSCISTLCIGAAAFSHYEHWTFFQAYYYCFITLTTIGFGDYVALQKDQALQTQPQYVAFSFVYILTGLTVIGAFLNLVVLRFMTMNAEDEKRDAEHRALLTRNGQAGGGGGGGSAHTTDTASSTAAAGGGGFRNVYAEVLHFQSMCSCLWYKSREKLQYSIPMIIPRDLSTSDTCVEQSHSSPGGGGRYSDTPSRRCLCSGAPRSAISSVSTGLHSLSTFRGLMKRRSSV
Assay [6] has as its target Potassium channel subfamily K member 9 (Homo sapiens, UniProt Q9NPC2). As to the kind of experiment: KCNK9 flux blockade, concentration-response – cell-based, FluxOR thallium flux, selectivity assay for TASK1 inhibitor project, SAR follow-up (AID 652211).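 Also: potency is for inhibitors of the channel.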 The assay is classed as functional.
In assay [7] the target is Potassium channel subfamily K member 3 (Rattus norvegicus, UniProt O54912). As to the kind of experiment: SAR analysis for the identification of selective inhibitors of the two-pore domain potassium channel TASK1(KCNK3):Automated Electrophysiology. It is filed as functional.
Potassium channel subfamily K member 3 (Rattus norvegicus, UniProt O54912), sequence (O54912 whole entry, the tested form may be a part): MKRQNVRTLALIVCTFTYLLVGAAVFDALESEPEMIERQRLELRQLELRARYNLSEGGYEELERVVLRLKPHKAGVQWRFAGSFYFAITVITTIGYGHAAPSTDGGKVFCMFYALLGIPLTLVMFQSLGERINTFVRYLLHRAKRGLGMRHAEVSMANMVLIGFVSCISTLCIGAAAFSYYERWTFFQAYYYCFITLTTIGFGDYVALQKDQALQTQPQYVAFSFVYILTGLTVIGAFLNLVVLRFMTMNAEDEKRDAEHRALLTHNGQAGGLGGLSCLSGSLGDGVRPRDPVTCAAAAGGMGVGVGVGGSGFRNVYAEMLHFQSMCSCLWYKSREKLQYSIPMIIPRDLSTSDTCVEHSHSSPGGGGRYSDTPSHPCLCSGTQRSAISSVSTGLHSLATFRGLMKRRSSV

What is called IC50 is the concentration at which inhibition is half-maximal.

Active and inactive are the calls of the source.

Potassium channel subfamily K member 9, sequence (Q9NPC2 whole entry, the tested form may be a part): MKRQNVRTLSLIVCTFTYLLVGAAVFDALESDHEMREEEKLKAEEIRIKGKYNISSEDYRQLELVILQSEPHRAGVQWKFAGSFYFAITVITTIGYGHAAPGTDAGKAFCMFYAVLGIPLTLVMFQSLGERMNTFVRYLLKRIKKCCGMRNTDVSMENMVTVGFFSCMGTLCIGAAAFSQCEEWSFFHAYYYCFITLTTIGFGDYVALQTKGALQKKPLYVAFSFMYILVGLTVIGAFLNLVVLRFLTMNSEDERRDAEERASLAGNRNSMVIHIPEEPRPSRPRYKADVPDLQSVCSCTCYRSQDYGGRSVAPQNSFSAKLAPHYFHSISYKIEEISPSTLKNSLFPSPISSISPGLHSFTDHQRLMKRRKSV
Tyrosyl-DNA phosphodiesterase 2, sequence (O95551 whole entry): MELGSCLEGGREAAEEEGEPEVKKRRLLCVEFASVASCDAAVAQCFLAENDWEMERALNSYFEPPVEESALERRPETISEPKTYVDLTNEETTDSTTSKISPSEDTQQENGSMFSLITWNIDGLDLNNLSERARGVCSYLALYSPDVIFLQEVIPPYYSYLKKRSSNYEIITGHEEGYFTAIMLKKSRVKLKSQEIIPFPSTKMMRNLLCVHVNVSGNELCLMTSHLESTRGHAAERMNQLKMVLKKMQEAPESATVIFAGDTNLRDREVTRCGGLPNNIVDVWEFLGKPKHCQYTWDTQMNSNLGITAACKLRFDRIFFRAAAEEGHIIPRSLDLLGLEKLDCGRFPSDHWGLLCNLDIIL
1-phosphatidylinositol 4,5-bisphosphate phosphodiesterase beta-3, sequence (Q01970 whole entry): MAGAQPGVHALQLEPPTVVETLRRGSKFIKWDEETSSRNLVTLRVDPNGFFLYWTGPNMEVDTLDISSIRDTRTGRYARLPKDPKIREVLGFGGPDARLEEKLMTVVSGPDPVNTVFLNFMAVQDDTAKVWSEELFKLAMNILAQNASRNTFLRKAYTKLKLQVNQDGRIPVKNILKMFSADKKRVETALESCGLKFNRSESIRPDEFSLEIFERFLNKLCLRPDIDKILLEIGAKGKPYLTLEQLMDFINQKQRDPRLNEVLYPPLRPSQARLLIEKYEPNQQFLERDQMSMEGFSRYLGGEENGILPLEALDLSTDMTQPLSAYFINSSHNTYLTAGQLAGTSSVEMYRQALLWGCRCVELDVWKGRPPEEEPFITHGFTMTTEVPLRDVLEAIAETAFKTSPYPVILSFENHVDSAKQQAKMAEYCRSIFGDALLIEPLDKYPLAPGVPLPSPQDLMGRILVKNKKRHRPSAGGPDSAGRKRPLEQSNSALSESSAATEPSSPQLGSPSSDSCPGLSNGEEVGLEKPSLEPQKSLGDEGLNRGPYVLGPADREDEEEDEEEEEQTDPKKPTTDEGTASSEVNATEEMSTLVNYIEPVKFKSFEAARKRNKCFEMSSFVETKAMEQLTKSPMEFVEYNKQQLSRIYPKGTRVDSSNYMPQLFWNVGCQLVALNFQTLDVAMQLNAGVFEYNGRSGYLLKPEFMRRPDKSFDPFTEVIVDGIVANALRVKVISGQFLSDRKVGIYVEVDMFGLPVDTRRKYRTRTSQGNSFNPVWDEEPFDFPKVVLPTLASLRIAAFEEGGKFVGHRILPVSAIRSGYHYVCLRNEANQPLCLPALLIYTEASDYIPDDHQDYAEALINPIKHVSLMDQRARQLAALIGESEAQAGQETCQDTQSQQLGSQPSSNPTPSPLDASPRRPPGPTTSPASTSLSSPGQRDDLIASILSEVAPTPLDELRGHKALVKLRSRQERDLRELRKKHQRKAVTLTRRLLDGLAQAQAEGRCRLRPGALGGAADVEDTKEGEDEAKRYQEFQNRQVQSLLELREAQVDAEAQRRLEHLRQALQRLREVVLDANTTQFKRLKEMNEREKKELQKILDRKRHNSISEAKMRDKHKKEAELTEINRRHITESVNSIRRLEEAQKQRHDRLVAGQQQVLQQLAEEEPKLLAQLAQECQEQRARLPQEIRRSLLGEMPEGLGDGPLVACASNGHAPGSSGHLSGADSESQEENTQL
1-phosphatidylinositol 4,5-bisphosphate phosphodiesterase gamma-1, sequence (P19174 whole entry): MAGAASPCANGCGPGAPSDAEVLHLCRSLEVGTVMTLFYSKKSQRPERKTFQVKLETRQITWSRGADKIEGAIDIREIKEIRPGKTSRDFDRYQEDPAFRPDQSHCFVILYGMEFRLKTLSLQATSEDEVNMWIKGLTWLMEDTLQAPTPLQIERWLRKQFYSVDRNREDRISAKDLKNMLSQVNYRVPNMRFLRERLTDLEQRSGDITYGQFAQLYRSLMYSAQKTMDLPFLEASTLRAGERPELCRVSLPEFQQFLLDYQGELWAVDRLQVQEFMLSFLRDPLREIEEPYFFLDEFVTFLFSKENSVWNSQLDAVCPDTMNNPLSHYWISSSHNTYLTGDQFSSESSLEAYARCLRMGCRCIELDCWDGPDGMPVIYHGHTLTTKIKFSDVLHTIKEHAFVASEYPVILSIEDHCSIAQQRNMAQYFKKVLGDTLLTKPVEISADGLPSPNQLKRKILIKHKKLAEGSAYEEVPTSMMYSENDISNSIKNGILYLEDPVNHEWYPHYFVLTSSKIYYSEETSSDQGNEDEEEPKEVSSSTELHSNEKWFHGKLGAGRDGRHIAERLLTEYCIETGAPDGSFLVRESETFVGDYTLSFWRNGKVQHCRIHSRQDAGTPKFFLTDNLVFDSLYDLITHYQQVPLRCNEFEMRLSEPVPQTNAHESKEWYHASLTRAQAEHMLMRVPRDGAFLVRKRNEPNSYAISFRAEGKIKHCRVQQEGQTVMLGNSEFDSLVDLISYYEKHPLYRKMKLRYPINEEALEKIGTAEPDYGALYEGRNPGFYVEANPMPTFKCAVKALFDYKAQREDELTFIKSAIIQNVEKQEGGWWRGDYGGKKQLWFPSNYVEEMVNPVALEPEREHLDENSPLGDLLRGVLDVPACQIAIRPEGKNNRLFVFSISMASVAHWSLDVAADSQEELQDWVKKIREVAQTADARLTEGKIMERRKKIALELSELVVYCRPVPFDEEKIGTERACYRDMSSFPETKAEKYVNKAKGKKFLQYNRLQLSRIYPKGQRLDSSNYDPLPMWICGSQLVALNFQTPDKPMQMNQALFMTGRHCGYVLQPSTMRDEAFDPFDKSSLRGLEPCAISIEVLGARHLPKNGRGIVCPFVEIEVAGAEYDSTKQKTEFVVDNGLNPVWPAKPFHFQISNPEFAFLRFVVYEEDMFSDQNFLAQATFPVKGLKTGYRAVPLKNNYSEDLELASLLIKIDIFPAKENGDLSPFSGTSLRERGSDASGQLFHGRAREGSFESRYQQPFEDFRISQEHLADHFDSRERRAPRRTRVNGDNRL

`COc1ccc(NC(=O)c2sc3cc(C(F)(F)F)cnc3c2-c2cccs2)cc1`: the IC50 in assay [1] and in assay [2] was > 122 µM (inactive) each time.
As for `O=C1C(O)=C(O)C(=O)c2ccccc21`, the IC50 at Genome polyprotein is > 100 µM (active); in assay [3], 12.5 µM (active); in assay [4] it was 19.3 µM (inactive).
Regarding `COc1ccccc1NC(=O)c1cccc(NC(=O)c2ccccc2OC)c1`, the IC50 in assay [5] is 0.008 µM (active); in assay [6] it was 3.02 µM (active); in assay [7], 0.03 µM (active).
